Reference: DBAASP
≈ marks a conversion by molar mass, not a printed value.

Experiments:
Assay in all cases: ≥ marks a high value that may be exact or a test limit, other limits are often not marked, values filed in µg/mL are converted to µM
[1] = tested on: Staphylococcus aureus KCTC 1621
[2] = tested on: Escherichia coli KCTC 1682
Proteus vulgaris = tested on: Proteus vulgaris
[3] = tested on: Pseudomonas aeruginosa KCTC 1637
[4] = tested on: Bacillus megaterium KCTC 1096
[5] = tested on: Bacillus subtilis KCTC 1918
[6] = tested on: Escherichia coli ATCC 25922
[7] = tested on: Candida albicans ATCC 18804
[8] = tested on: Staphylococcus aureus ATCC 25923
[9] = tested on: Staphylococcus aureus FDA 209P JC-1
[10] = tested on: Staphylococcus aureus Smith
[11] = tested on: Escherichia coli NIHJ JC-2
[12] = tested on: Vibrio parahaemolyticus IFO12711
[13] = tested on: Escherichia coli ATCC 39188
[14] = tested on: Escherichia coli JCM 1649
[15] = tested on: Bacillus subtilis ATCC 6633
Escherichia coli CR3 = tested on: Escherichia coli CR3
[16] = tested on: Bacillus subtilis IFO 13722
[17] = tested on: Salmonella enterica subsp. enterica serovar Typhimurium ATCC 14028
Escherichia coli CE273 = tested on: Escherichia coli CE273
[18] = tested on: Salmonella enterica subsp. enterica serovar Enteritidis ATCC 1891
Bacillus cereus IFO 3457 = tested on: Bacillus cereus IFO 3457
[19] = tested on: Staphylococcus aureus JCM 2431
[20] = tested on: Staphylococcus aureus IFO 13276
[21] = tested on: Salmonella typhimurium CCARM 8009
[22] = tested on: Salmonella typhimurium CCARM 8013
[23] = tested on: Escherichia coli ATCC 12795
[24] = tested on: Staphylococcus epidermidis LY8
Escherichia coli E44813 = tested on: Escherichia coli E44813
[25] = tested on: Listeria monocytogenes CICC 21533
[26] = tested on: Salmonella typhimurium KCTC 1926
[27] = tested on: Escherichia coli CCARM 1238
[28] = tested on: Salmonella enterica subsp. enterica serovar Choleraesuis C78-1
[29] = tested on: Salmonella typhimurium SL1344
[30] = tested on: Pseudomonas aeruginosa ATCC 15692
Pasteurella multocida = tested on: Pasteurella multocida
[31] = tested on: Streptococcus pyogenes KCTC 3096
[32] = tested on: Escherichia coli CCARM 1229
[33] = tested on: Pasteurella multocida C48-3
[34] = tested on: Bacillus subtilis CICC 24434
[35] = tested on: Proteus vulgaris KCTC 2433

What does the source list for `CC[C@H](C)[C@H](NC(=O)[C@H](CCCCN)NC(=O)[C@H](CCCCN)NC(=O)[C@H](Cc1ccccc1)NC(=O)[C@H](CC(C)C)NC(=O)[C@H](CCCCN)NC(=O)[C@H](Cc1c[nH]c2ccccc12)NC(=O)[C@@H](N)CCCCN)C(=O)N1CCC[C@H]1C(=O)N[C@@H](CC(C)C)C(=O)N[C@@H](CCCCN)C(=O)N[C@@H](CCCCN)C(=O)N[C@@H](Cc1ccccc1)C(N)=O` [KWKLFKKIPLKKF]?
MIC [1]: 12.5 µM (≈ 21.3 µg/mL); MIC [2]: 12.5 µM (≈ 21.3 µg/mL); MIC (Proteus vulgaris): 3.12 µM (≈ 5.32 µg/mL); MIC [3]: 12.5 µM (≈ 21.3 µg/mL); MIC [4]: 3.12 µM (≈ 5.32 µg/mL); MIC [5]: 1.56 µM (≈ 2.66 µg/mL)

Which results are given for `CC[C@H](C)[C@H](NC(=O)[C@H](C)NC(=O)[C@H](CCC(=O)O)NC(=O)[C@H](CO)NC(=O)[C@@H](N)Cc1ccccc1)C(=O)N[C@@H](CCCCN)C(=O)N[C@@H](CCCCN)C(=O)N[C@H](C(=O)N[C@H](C(=O)N[C@@H](CC(=O)O)C(=O)N[C@@H](Cc1ccccc1)C(=O)N[C@@H](CC(C)C)C(=O)NCC(=O)N[C@@H](CCC(=O)O)C(=O)NCC(=O)N[C@@H](CC(C)C)C(=O)N[C@@H](Cc1ccccc1)C(=O)N[C@@H](CC(=O)O)C(=O)N[C@H](C(=O)N[C@H](C(=O)N[C@@H](CCCCN)C(=O)N[C@@H](CCCCN)C(=O)N[C@H](C(=O)N[C@@H](C)C(=O)N[C@@H](CCC(=O)O)C(=O)N[C@@H](CO)C(=O)N[C@@H](Cc1ccccc1)C(=O)O)[C@@H](C)CC)[C@@H](C)CC)[C@@H](C)CC)[C@@H](C)CC)[C@@H](C)CC` [FSEAIKKIIDFLGEGLFDIIKKIAESF]?
MIC [6]: 128 µM (≈ 393 µg/mL); MIC [7]: ≥ 128 µM; MIC [8]: > 128 µM

Which MIC [9] does the source give for `CC[C@H](C)[C@H](NC(=O)CNC(=O)[C@H](CCCCN)NC(=O)[C@H](Cc1c[nH]c2ccccc12)NC(=O)[C@H](CC(N)=O)NC(=O)[C@@H](N)CCCCN)C(=O)N[C@@H](C)C(=O)NCC(=O)N[C@@H](CCSC)C(=O)N[C@@H](C)C(=O)N[C@@H](CCCCN)C(=O)N[C@@H](CCCCN)C(=O)N[C@@H](CC(C)C)C(=O)N[C@@H](CC(C)C)C(=O)NCC(=O)N[C@@H](CCCCN)C(=O)N[C@@H](CC(N)=O)C(=O)N[C@@H](Cc1c[nH]c2ccccc12)C(=O)N[C@@H](CCCCN)C(=O)N[C@@H](CC(C)C)C(=O)N[C@@H](CCSC)C(=O)O` [KNWKGIAGMAKKLLGKNWKLM] here?
Its MIC is 1.6 µM (≈ 3.87 µg/mL).

What about the MIC [10] of the same molecule?
Its MIC is 6.3 µM (≈ 15.2 µg/mL).

What about the MIC [11] of the same molecule?
The MIC was 3.1 µM (≈ 7.49 µg/mL).

What about the MIC [12] of the same molecule?
The MIC was no less than 50 µM.

And the MIC [13]?
The MIC was 3.1 µM (≈ 7.49 µg/mL).

What about the MIC [14] of the same molecule?
Its MIC is 6.3 µM (≈ 15.2 µg/mL).

What about the MIC [15] of the same molecule?
Its MIC is 3.1 µM (≈ 7.49 µg/mL).

And the MIC (Escherichia coli CR3)?
The MIC was 6.3 µM (≈ 15.2 µg/mL).

And the MIC [16]?
Its MIC is 6.3 µM (≈ 15.2 µg/mL).

What about the MIC [17] of the same molecule?
The MIC was 6.3 µM (≈ 15.2 µg/mL).

And the MIC (Escherichia coli CE273)?
Its MIC is 3.1 µM (≈ 7.49 µg/mL).

What about the MIC [18] of the same molecule?
Its MIC is 6.3 µM (≈ 15.2 µg/mL).

What about the MIC (Bacillus cereus IFO 3457) of the same molecule?
Its MIC is 3.1 µM (≈ 7.49 µg/mL).

What about the MIC [19] of the same molecule?
Its MIC is 12.5 µM (≈ 30.2 µg/mL).

What about the MIC [20] of the same molecule?
Its MIC is 25 µM (≈ 60.4 µg/mL).

What does the source list for `CC[C@H](C)[C@H](NC(=O)[C@@H](NC(=O)[C@@H](N)CCCN=C(N)N)[C@@H](C)CC)C(=O)N[C@@H](CC(=O)O)C(=O)N[C@@H](CC(C)C)C(=O)N[C@@H](CC(C)C)C(=O)N[C@@H](Cc1c[nH]c2ccccc12)C(=O)N[C@@H](CCCN=C(N)N)C(=O)N[C@H](C(=O)N[C@@H](CCCN=C(N)N)C(=O)N[C@@H](CCCN=C(N)N)C(=O)N1CCC[C@H]1C(=O)N[C@@H](CCC(N)=O)C(=O)N[C@@H](CCCCN)C(=O)N1CCC[C@H]1C(=O)N[C@@H](CCCCN)C(=O)N[C@@H](Cc1ccccc1)C(=O)N[C@H](C(=O)N[C@H](C(=O)N[C@H](C(=O)N[C@@H](Cc1c[nH]c2ccccc12)C(=O)N[C@H](C(=O)N[C@@H](CCCN=C(N)N)C(=O)O)C(C)C)C(C)C)[C@@H](C)O)C(C)C)C(C)C` [RIIDLLWRVRRPQKPKFVTVWVR]?
MIC [6]: 4 µM (≈ 11.9 µg/mL); MIC [21]: 4 µM (≈ 11.9 µg/mL); MIC [22]: 4 µM (≈ 11.9 µg/mL); MIC [23]: 0.4 µM (≈ 1.19 µg/mL); MIC [24]: 8.44 µM (≈ 25 µg/mL); MIC [1]: 3.12 µM (≈ 9.26 µg/mL); MIC [2]: 1.56 µM (≈ 4.62 µg/mL); MIC (Escherichia coli E44813): 8.44 µM (≈ 25 µg/mL); MIC [25]: ≥ 42.2 µM; MIC [3]: 1.56 µM (≈ 4.62 µg/mL); MIC [26]: 1.77 µM (≈ 5.23 µg/mL); MIC [27]: 2 µM (≈ 5.93 µg/mL); MIC [28]: 0.527 µM (≈ 1.56 µg/mL); MIC [29]: 1.05 µM (≈ 3.12 µg/mL); MIC [30]: 8 µM (≈ 23.7 µg/mL); MIC [8]: 0.0165 µM (≈ 0.0489 µg/mL); MIC (Pasteurella multocida): 6.8 µM (≈ 20.1 µg/mL); MIC [31]: 1.56 µM (≈ 4.62 µg/mL); MIC [32]: 4 µM (≈ 11.9 µg/mL); MIC [33]: 1.05 µM (≈ 3.12 µg/mL); MIC [34]: 0.527 µM (≈ 1.56 µg/mL); MIC [5]: 1.56 µM (≈ 4.62 µg/mL); MIC [35]: 16 µM (≈ 47.4 µg/mL)
